Among the data in PubChem BioAssay AID1648 (Sanford-Burnham Center for Chemical Genomics, 2009) are Kd values, retold here.

Molecules are shown by their SMILES. The source made the active and inactive calls. How the calls were made is not given here.

The target in this assay is Serine/threonine-protein kinase mTOR (Homo sapiens) (UniProt P42345). Briefly: mTOR FRB domain ligand binding – biophysical, NMR (AID 1648). The conditions noted are these: NMR binding to FRB domain, chemical shift.
Serine/threonine-protein kinase mTOR (Homo sapiens), sequence (P42345 2015-2114): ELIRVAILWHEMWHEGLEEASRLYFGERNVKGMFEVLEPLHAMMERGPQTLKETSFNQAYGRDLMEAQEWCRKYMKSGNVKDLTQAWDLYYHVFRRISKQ
A word on the Kd: it is the equilibrium constant for the complex coming apart. As to `COc1cc(C(=S)N2CCC(C(N)=O)CC2)ccc1O`, the Kd was > 4 mM (inactive). Turning to `CC(C)(C)CC(=O)NNC(=O)c1cnccn1`, the Kd was > 4 mM (inactive). For the molecule `COC(=O)CCC(C)C1CCC2C3CCC4C[C@H](O)CC[C@]4(C)C3C[C@H](O)[C@]12C` (stereo not given in full), the Kd is > 4 mM (inactive). `COc1ccc(S(=O)(=O)NCCO)cc1`: the Kd was > 4 mM (inactive).

Turning to `Cc1ccc(C(O)c2nccn2C)o1` (stereo not given), the Kd is > 4 mM (inactive).

In the case of `CCOC(=O)c1c(-c2ccncc2)csc1N`, the Kd was > 4 mM (inactive).

With `CN1CCN(C(=O)/C=C\C(=O)O)CC1`, the Kd is > 4 mM (inactive). As for `Cc1c(/C=N\n2cnnc2)c2ccccc2n1C`, the Kd is > 4 mM (inactive). In the case of `CCSc1nc2ccccc2[nH]1`, the Kd was > 4 mM (inactive). `CN(C)/C=N/S(=O)(=O)c1ccccc1`: the Kd is > 4 mM (inactive). `S=C(Nc1ccccc1)Nc1nncs1`: the Kd was > 4 mM (inactive). For the molecule `Cc1ccc(-n2cnnn2)c2cccnc12`, the Kd is > 4 mM (inactive). As for `C/C=C(/C)C(=O)O[C@@H]1[C@H](OC(C)=O)[C@@]2(CO)C(CC1(C)C)C1=CCC3[C@@]4(C)CC[C@H](O[C@@H]5O[C@H](C(=O)O)[C@@H](O[C@@H]6O[C@H](CO)[C@@H](O)[C@H](O)[C@H]6O)[C@H](O)[C@H]5O[C@@H]5O[C@H](CO)[C@@H](O)[C@H](O)[C@H]5O)[C@](C)(CO)C4CC[C@@]3(C)[C@]1(C)C[C@H]2O` (stereo not given in full), the Kd was > 4 mM (inactive). For the molecule `CC(=O)Nc1ccc(NC(=O)N2CCOCC2)cc1`, the Kd was > 4 mM (inactive). With `O=C(Nc1cnccn1)c1cccnc1` the figure was > 4 mM (inactive); with `O=C(O)CN1C(=O)c2ccc(C(=O)O)cc2C1=O`, > 4 mM (inactive).

`O=C(O)Cn1cc(C(F)(F)F)ccc1=O`: the Kd is > 4 mM (inactive).

As to `O=C(O)C1(S(=O)(=O)c2ccccc2)CC1`, the Kd was > 4 mM (inactive). The value for `CC(=O)Nc1ccc(-c2nc(C)c(C(C)=O)n2O)cc1` was > 4 mM (inactive). Turning to `Cc1nc(-c2cc(CO)no2)cs1`, the Kd is > 4 mM (inactive). For the molecule `NC(=O)c1cccc2c1OCCO2`, the Kd is > 4 mM (inactive). As for `Cc1nc2ccccc2c(=O)n1/N=C/c1ccncc1`, the Kd is > 4 mM (inactive).

On to `COc1cccc2c(=O)n(CC(N)=O)ccc12`, for which the Kd was > 4 mM (inactive).

On to `COC(=O)[C@]1(C)CC[C@]2(C)CC[C@]3(C)C4=CC=C5C(=CC(=O)C(O)=C5C)[C@]4(C)CC[C@@]3(C)[C@@H]2C1`, for which the Kd is > 4 mM (inactive). With `CCOC(=O)c1c(C)cc(OC)cc1O` the figure was > 4 mM (inactive); with `CC1(C)O[C@H]2[C@H](O)C[C@](O)(C(N)=O)C[C@H]2O1`, > 4 mM (inactive). Take `O=C1CSC(=O)N1CN1CCCC1`: the Kd is > 4 mM (inactive). As to `O=S1(=O)NC(=NCc2ccco2)c2ccccc21`, the Kd was > 4 mM (inactive). The value for `CC1(C)Cc2nc3[nH]c(=S)[nH]c(=O)c3cc2CO1` was > 4 mM (inactive); that for `NC(=O)c1ccc(N2C(=O)CCC2=O)cc1Cl` was > 4 mM (inactive); that for `COC(=O)c1noc(-c2ccc(OC)cc2)n1` was > 4 mM (inactive).

For `Cc1ccc(-c2nnc3sc(-c4ccncc4)nn23)cc1`, the Kd is > 4 mM (inactive). Regarding `CC(C)(C)CC(=O)N1CCC(C(N)=O)CC1`, the Kd was > 4 mM (inactive). As for `Nc1nc(NCc2ccco2)nn1-c1ccccc1`, the Kd was > 4 mM (inactive). `CC1(C)C2CC[C@]3(C)C(C(=O)C=C4[C@@H]5C[C@@](C)(C(=O)O)CC[C@]5(C)CC[C@]43C)[C@@]2(C)CC[C@@H]1O` (stereo not given in full): the Kd is > 4 mM (inactive). For `C=C1[C@H]2CC[C@@]3(C)[C@H](c4ccoc4)OC(=O)C[C@]13O[C@H]1C[C@H](O)C(C)(C)[C@H](CC(=O)OC)[C@]12C`, the Kd was > 4 mM (inactive). Consider `Cc1nc2nc(Cc3ccccc3)[nH]n2c(=O)c1Cl`, for which the Kd was > 4 mM (inactive). Take `COc1cc(-c2coc3cc(OC)c(OC)c(OC)c3c2=O)cc(OC)c1OC`: the Kd was > 4 mM (inactive). As for `CC(=O)NN1C(=O)/C(=C\c2ccc(O)cc2)SC1=S`, the Kd was > 4 mM (inactive). Consider `Nc1cccnc1Oc1ccc(F)cc1F`, for which the Kd is > 4 mM (inactive). Take `CCn1c(C)c(C(C)=O)c(N2CCN(C)CC2)nc1=S`: the Kd is > 4 mM (inactive). Regarding `Nc1ccc(OCc2ccccc2)cc1`, the Kd was > 4 mM (inactive). Consider `O=C(Nc1c[nH]c(=O)[nH]c1=O)c1ccccc1F`, for which the Kd is > 4 mM (inactive). Regarding `O=C(O)CSc1nc2ccccc2c(=O)[nH]1`, the Kd is > 4 mM (inactive).

Turning to `CCC(=O)Nc1ccc(-c2nn3c(C)nnc3s2)cc1`, the Kd is > 4 mM (inactive). As to `Cn1ncc2c(=O)n(CC(=O)c3ccccc3)cnc21`, the Kd is > 4 mM (inactive). With `CC(=O)Nc1ccc(C(=O)n2nc(C)cc2C)cc1` the figure was > 4 mM (inactive); with `CC(C)[C@@H]1CC[C@@H](C)CC1=O`, > 4 mM (inactive); with `CC(NC(=O)c1ccco1)c1ccc2c(c1)OCCO2` (stereo not given), > 4 mM (inactive). Take `O=C1CS/C(=N/N=C2CCCC2)N1`: the Kd is > 4 mM (inactive). As to `CC(=O)OCc1cc(=O)n(C)c(=O)n1C`, the Kd was > 4 mM (inactive). `CC(=O)c1c(C)nn(CC(=O)O)c1C`: the Kd was > 4 mM (inactive). `CS(=O)(=O)N/N=C/c1cccs1`: the Kd was > 4 mM (inactive). Turning to `Nc1ccc(CN2CCS(=O)(=O)CC2)cc1`, the Kd is > 4 mM (inactive). In the case of `Cc1cc(C(=O)Nc2cccnc2)cs1`, the Kd is > 4 mM (inactive). For `C/C=C/C(=O)Nc1ccc(NC(C)=O)cc1`, the Kd is > 4 mM (inactive). `COc1ccc(Cc2nccc3cc(OC)c(OC)cc23)cc1OC`: the Kd is > 4 mM (inactive).

As for `COC(=O)C[C@H]1C(C)(C)C(=O)[C@@H]2CC3C4=CC(=O)O[C@@H](c5ccoc5)[C@]4(C)CCC3C1(C)C2=O` (stereo not given in full), the Kd was > 4 mM (inactive).

Consider `COC(=O)Nc1ccc2ncn(C)c(=O)c2c1`, for which the Kd is > 4 mM (inactive). On to `NCc1ccc2occc2c1`, for which the Kd is > 4 mM (inactive). As for `CC1CN(C(=O)c2ccncc2)CC(C)O1` (stereo not given), the Kd was > 4 mM (inactive). With `O=C(O)CCSc1nc2ccccc2s1` the figure was > 4 mM (inactive); with `c1ccc2c(NC3=NCCS3)cccc2c1`, > 4 mM (inactive). The value for `Cc1nn(C)c(Cl)c1C(O)c1c(C)nn(C)c1Cl` was > 4 mM (inactive); that for `COc1cc2c(cc1-c1coc3c4c(c(OC)cc3c1=O)OC(C)(C)C=C4)OCO2` was > 4 mM (inactive); that for `O=C(Nc1ccc(F)cc1F)c1ccco1` was > 4 mM (inactive). With `NC1C2CC3CC1CC(O)(C3)C2` (stereo not given) the figure was > 4 mM (inactive).

For the molecule `COC(=O)CCSCC(=O)Nc1nccs1`, the Kd was > 4 mM (inactive). Take `Cc1ncc(C[n+]2csc3ccccc32)c(N)n1`: the Kd was > 4 mM (inactive). Regarding `COC(=O)Cc1csc(N)n1`, the Kd was > 4 mM (inactive).
